From patent US9988430B2, “Stable GLP-1 based GLP-1/glucagon receptor co-agonists” (Novo Nordisk A/S, priority 2014, dated 2018)
*1 amine or outer side, *2 acyl side, *3 side chain or, on linkers, in order; H or OH if unused. Where a SMILES comes first, the peptide text is derived from it. Side-chain parts run from the residue outwards. [ ]: non-standard residue; d: D form. The star is where a group is joined. C18 diacid = O=C(O)CCCCCCCCCCCCCCCCC(=O)*; γGlu = O=C(O)[C@H](CCC(=O)[*:2])N[*:1]; C14 diacid = O=C(O)CCCCCCCCCCCCC(=O)*; Desaminohistidyl = O=C(CCc1c[nH]cn1)*; AEEA = NCCOCCOCC(=O)O; Aib = CC(C)(N)C(=O)O

Legend:
[1] = molecular target: T1, human GLP-1 receptor (Homo sapiens, UniProt P43220); assay: Assay (I)(a): GLP-1 receptor potency, CRE luciferase reporter gene assay in BHK cells; type: cell-based; conditions: BHK cells expressing human GLP-1 receptor, read-out: EC50 GLP-1R
T1 construct: expressed in transfected cells; host or cells: membranes of BHK cells, parent line BHKTS13, clone FCW467-12A
T1 sequence (P43220 24-463): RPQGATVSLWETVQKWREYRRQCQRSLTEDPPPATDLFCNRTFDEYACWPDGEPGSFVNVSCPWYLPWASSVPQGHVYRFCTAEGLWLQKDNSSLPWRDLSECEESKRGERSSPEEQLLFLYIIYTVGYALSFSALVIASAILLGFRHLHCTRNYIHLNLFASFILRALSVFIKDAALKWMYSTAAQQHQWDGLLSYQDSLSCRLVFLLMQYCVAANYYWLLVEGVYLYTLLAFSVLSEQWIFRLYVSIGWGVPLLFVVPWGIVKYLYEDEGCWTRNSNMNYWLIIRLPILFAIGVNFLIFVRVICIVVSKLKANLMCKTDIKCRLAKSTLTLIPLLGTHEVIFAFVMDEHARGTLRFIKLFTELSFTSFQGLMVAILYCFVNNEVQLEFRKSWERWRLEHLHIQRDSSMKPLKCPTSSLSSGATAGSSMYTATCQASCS
In short: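 BHK cells (clone FCW467-12A/KZ10-1), 5×10EE3/well, exposed 3 h at 37° C to compound at 1×10EE-13 to 1×10EE-6 M final in medium with 2% ovalbumin and 0.2% Pluronic F-68. Luciferase luminescence read; EC50 (pM) from four-parameter fit.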

[2] = molecular target: T2, human glucagon receptor (Homo sapiens, UniProt P47871); assay: Assay (I)(b): glucagon receptor potency, CRE luciferase reporter gene assay in BHK cells; type: cell-based; conditions: BHK cells expressing human glucagon receptor, read-out: EC50 GlucagonR
T2 construct: expressed in transfected cells; host or cells: membranes of BHK cells, clone BHK hGCGR A3*25
T2 sequence (P47871 26-477): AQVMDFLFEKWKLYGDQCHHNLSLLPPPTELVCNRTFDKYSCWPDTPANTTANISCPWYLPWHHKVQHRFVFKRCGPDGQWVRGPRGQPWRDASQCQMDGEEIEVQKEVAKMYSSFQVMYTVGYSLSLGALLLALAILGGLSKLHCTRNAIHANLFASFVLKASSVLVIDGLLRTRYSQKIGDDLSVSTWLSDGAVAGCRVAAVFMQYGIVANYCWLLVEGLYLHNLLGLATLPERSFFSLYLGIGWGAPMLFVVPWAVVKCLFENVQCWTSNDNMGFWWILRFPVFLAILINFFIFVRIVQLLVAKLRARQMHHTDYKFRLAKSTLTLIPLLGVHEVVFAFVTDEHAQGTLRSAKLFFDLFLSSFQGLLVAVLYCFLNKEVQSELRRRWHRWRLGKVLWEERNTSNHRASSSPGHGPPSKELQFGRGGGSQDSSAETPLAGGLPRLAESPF
Experimental: Assay (I): GLP-1 and Glucagon Receptor Potency The purpose of this example was to test the activity or potency, of the GLP-1 derivatives of the invention, in vitro. The in vitro potency is the measure of human GLP-1 receptor (GLP-1R) or glucagon receptor (glucagonR) activation, respectively, in a whole cell assay. In vitro potency was determined by measuring the cellular response of human GLP-1 or glucagon receptor activation, respectively, in a reporter gene assay. The assay was performed in a BHK cell line that stably expresses either the human GLP-1 receptor or the human glucagon receptor and comprises the DNA for the cAMP response element (CRE) coupled to a promoter and the gene for firefly luciferase (CRE luciferase). […] When assay incubation was completed, the luciferase substrate (luciferin) was added and the enzyme converted luciferin to oxyluciferin and produces bioluminescence. The luminescence was measured as the readout for the assay. […] The cells were counted and adjusted to 5×10EE3 cells/50 μl (1×10EE5 cells/ml) in Assay Medium. […] Each assay plate was read in a Perkin Elmer TopCount NXT instrument. […] EC50 values were calculated by the software and reported in pM.

[3] = molecular target: T2, human glucagon receptor; assay: Assay (II)(b): glucagon receptor binding, [125I]-glucagon displacement, SPA on BHK membranes; conditions: displacement of [125I]-glucagon, membranes with human glucagon receptor; read-out: IC50 GlucagonR
Experimental: Assay (II): GLP-1 and Glucagon Receptor Binding The purpose of this assay is to test the in vitro receptor binding activity of the GLP-1 derivatives of the invention. (b) Glucagon Receptor Binding The glucagon receptor (glucagonR) binding activity is a measure of affinity of a derivative for the human glucagon receptor. The glucagon receptor binding of each derivative were determined with competitive binding, displacing [^125I]-glucagon bound to glucagon receptors expressed in cell membranes associated with wheat germ agglutinin (WGA) scintillation proximity assay (SPA) beads. Each derivative was added in a series of concentrations to isolated membranes comprising the human glucagon receptor and displacement of the labelled ligand was monitored. The receptor binding was reported as the concentration at which half of the labelled ligand is displaced from the receptor, the IC^50 value. The following chemicals were used in the assay: DMEM w Glutamax (Gibco 61965-026), Pen/strep (Invitrogen 15140-122), G418 (Invitrogen 10131-027), Versene (Gibco 15040), 1 M Hepes (Gibco 15630), PBS (Invitrogen 14190-094), fetal calf serum (Invitrogen 16140-071), MgCl2 (Merck 1.05832.1000), EDTA (Invitrogen 15575-038), CaCl2 (Sigma, C5080), Tween 20 (Amresco 0850C335), ovalbumin (Sigma A5503), SPA particles (wheat germ agglutinin (WGA) SPA beads, Perkin Elmer RPNQ0001), [125I]-glucagon (produced in-house), OptiPlate™-96 (Packard 6005290). HME buffer consisted of 25 mM HEPES, 2 mM MgCl2 and 1 mM EDTA, and pH was adjusted to 7.4. Assay buffer consisted of 50 mM HEPES supplemented with 5 mM MgCl2, 1 mM CaCl2, 0.02% Tween 20 and 0.1% Ovalbumin, and pH was adjusted to 7.4. The cells used in this assay (clone BHK hGCGR A3*25) were BHK cells stable transfected with an expression plasmid comprising the cDNA encoding the human glucagon receptor. The cells were grown at 5% CO2 in DMEM, 10% fetal calf serum, 1% Pen/Strep (Penicillin/Streptomycin) and 1.0 mg/ml of the selection marker G418. To make a membrane preparation the cells were grown to approximately 80% confluence. The cells were washed twice in phosphate-buffered saline and harvested. The cells were pelleted using a brief centrifugation and the cell pellet was kept on ice. Lyse the cells by adding approx. 5 ml HME buffer, mix by pipetting and snap freeze in liquid nitrogen. Thaw quickly and add HME buffer to 10 ml. The cell pellet was homogenised with an ULTRA-THURRAX dispersing instrument for 20-30 seconds. The homogenate was centrifuged at 20.000×G, 4° C. for 10 minutes. The pellet was resuspended (homogenised) in 1-2 ml HME buffer. The protein concentration was determined. The membranes were aliquoted and snapfrozen in liquid nitrogen and stored at minus 80° C. • 1. For the receptor binding assay 50 μl of the assay buffer was added to each well of an assay plate. • 2. Test compounds were serially diluted to give the following concentrations: 8×10EE-7 M, 8×10EE-8 M, 8×10EE-9 M, 8×10EE-10 M, 8×10EE-11 M, 8×10EE-12 M and 8×10EE-13 M. Twenty-five μl were added to appropriate wells in the assay plate. • 3. Cell membrane aliquots were thawed and diluted to their working concentration. Fifty μl were added to each well in the assay plate. • 4. WGA SPA beads were suspended in assay buffer at 20 mg/ml. The suspension was diluted to 10 mg/ml in assay buffer just prior to addition to the assay plate. Fifty μl were added to each well in the assay plate. • 5. The incubation was started by adding 25 μl of 480 pM solution of [125I]-glucagon to each well of the assay plate. A 25 μl aliquot was reserved for measuring total counts/well. • 6. The assay plate was incubated for 2 h at 25° C. • 7. The assay plate was centrifuged for 10 min at 1500 rpm. • 8. The assay plate was read in a Perkin Elmer TopCount NXT instrument. Calculations The data from the TopCount instrument were transferred to GraphPad Prism software. The software averaged the values for the replicates and performed a non-linear regression. […]

| EC50 [1] | EC50 [2] | IC50 [3] | SMILES |
| --- | --- | --- | --- |
| 7 pM | 0.143 nM |  | CC[C@H](C)[C@H](NC(=O)[C@H](Cc1ccccc1)NC(=O)[C@H](CCCCNC(=O)COCCOCCNC(=O)COCCOCCNC(=O)CC[C@H](NC(=O)CC[C@H](NC(=O)CC[C@H](NC(=O)CCCCCCCCCCCCCCCCC(=O)O)C(=O)O)C(=O)O)C(=O)O)NC(=O)[C@H](CCCNC(=N)N)NC(=O)[C@H](C)NC(=O)[C@H](C)NC(=O)[C@H](CCC(N)=O)NC(=O)[C@H](CCC(=O)O)NC(=O)[C@H](CCC(=O)O)NC(=O)[C@H](CC(C)C)NC(=O)[C@H](Cc1ccc(O)cc1)NC(=O)[C@H](CCCNC(=N)N)NC(=O)[C@H](CO)NC(=O)[C@@H](NC(=O)[C@H](CC(=O)O)NC(=O)[C@H](CO)NC(=O)[C@@H](NC(=O)[C@H](Cc1ccccc1)NC(=O)[C@@H](NC(=O)CNC(=O)[C@H](Cc1c[nH]cn1)NC(=O)C(C)(C)NC(=O)CCc1c[nH]cn1)[C@@H](C)O)[C@@H](C)O)C(C)C)C(=O)N[C@@H](C)C(=O)N[C@@H](Cc1c[nH]c2ccccc12)C(=O)N[C@@H](CC(C)C)C(=O)N[C@@H](CC(C)C)C(=O)N[C@@H](CCCNC(=N)N)C(=O)O [Example 19, N^ε27-[2-[2-[2-[[2-[2-[2-[[(4S)-4-carboxy-4-[[(4S)-4-carboxy-4-[[(4S)-4-carboxy-4-(17-carboxyheptadecanoylamino)butanoyl]amino]butanoyl]amino]butanoyl]amino]ethoxy]ethoxy]acetyl]amino]ethoxy]ethoxy]acetyl]-[Imp7,Aib8,His9,Arg18,Glu22,Arg26,Lys27,Leu33,Arg34]-GLP-1-(7-34)-peptide] (Desaminohistidyl-[Aib]HGTFTSDVSRYLEEQAARK([AEEA-AEEA-γGlu-γGlu-γGlu-C18 diacid])FIAWLLR-OH) |
| 12 pM |  | 3.7 nM | CC[C@H](C)[C@H](NC(=O)[C@H](Cc1ccccc1)NC(=O)[C@H](CCC(=O)O)NC(=O)[C@H](CCCNC(=N)N)NC(=O)[C@H](C)NC(=O)[C@H](C)NC(=O)[C@H](CCC(N)=O)NC(=O)[C@H](CCC(=O)O)NC(=O)[C@H](CCC(=O)O)NC(=O)[C@H](CC(C)C)NC(=O)[C@H](Cc1ccc(O)cc1)NC(=O)[C@H](CCCCN)NC(=O)[C@H](CO)NC(=O)[C@@H](NC(=O)[C@H](CC(=O)O)NC(=O)[C@H](CO)NC(=O)[C@@H](NC(=O)[C@H](Cc1ccccc1)NC(=O)[C@@H](NC(=O)CNC(=O)[C@H](Cc1c[nH]cn1)NC(=O)C(C)(C)NC(=O)CCc1c[nH]cn1)[C@@H](C)O)[C@@H](C)O)C(C)C)C(=O)N[C@@H](C)C(=O)N[C@@H](Cc1c[nH]c2ccccc12)C(=O)N[C@@H](CC(C)C)C(=O)N[C@@H](CC(C)C)C(=O)N[C@@H](CCCCNC(=O)COCCOCCNC(=O)COCCOCCNC(=O)CC[C@H](NC(=O)CC[C@H](NC(=O)CCCCCCCCCCCCC(=O)O)C(=O)O)C(=O)O)C(=O)N[C@H](C(N)=O)[C@@H](C)O [Example 38, N^ε34-[2-[2-[2-[[2-[2-[2-[[(4S)-4-carboxy-4-[[(4S)-4-carboxy-4-(13-carboxytridecanoylamino)butanoyl]amino]butanoyl]amino]ethoxy]ethoxy]acetyl]amino]ethoxy]ethoxy]acetyl]-[Imp7,Aib8,His9,Lys18,Glu22,Arg26,Leu33,Thr35]-GLP-1-(7-35)-peptide amide] (Desaminohistidyl-[Aib]HGTFTSDVSKYLEEQAAREFIAWLLK([AEEA-AEEA-γGlu-γGlu-C14 diacid])T-NH2) |
